Data from PubChem BioAssay (NCI).
Values after ≈ are worked out from the molar mass of the structure shown.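 Five concentrations, 48 hours, 96-well plates. GI50 is the concentration that inhibits growth by half. The concentration for full growth arrest is given as TGI.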

Legend:
Assay in all cases: NCI tumour cell line growth inhibition, 48 h
MOLT-4 leukemia = tested on: MOLT-4 leukemia
KM12 colon = tested on: KM12 colon
ACHN renal = tested on: ACHN renal
LOX IMVI melanoma = tested on: LOX IMVI melanoma
SF-295 CNS = tested on: SF-295 CNS
HCC-2998 colon = tested on: HCC-2998 colon
OVCAR-4 ovarian = tested on: OVCAR-4 ovarian
SF-539 CNS = tested on: SF-539 CNS
SK-MEL-2 melanoma = tested on: SK-MEL-2 melanoma
IGROV1 ovarian = tested on: IGROV1 ovarian

| Structure (SMILES) | TGI (MOLT-4 leukemia) | TGI (KM12 colon) | TGI (ACHN renal) | TGI (LOX IMVI melanoma) | TGI (SF-295 CNS) | TGI (HCC-2998 colon) [µM] | TGI (OVCAR-4 ovarian) | TGI (SF-539 CNS) | TGI (SK-MEL-2 melanoma) [µM] | TGI (IGROV1 ovarian) | GI50 (MOLT-4 leukemia) | GI50 (KM12 colon) | GI50 (SF-539 CNS) | GI50 (SK-MEL-2 melanoma) [µM] | GI50 (ACHN renal) [µg/mL] | GI50 (LOX IMVI melanoma) [µg/mL] | GI50 (SF-295 CNS) [µg/mL] | GI50 (OVCAR-4 ovarian) [µg/mL] | GI50 (IGROV1 ovarian) [µg/mL] |
| --- | --- | --- | --- | --- | --- | --- | --- | --- | --- | --- | --- | --- | --- | --- | --- | --- | --- | --- | --- |
| O=C1CC2CC3OC3[C@H]3c4cc5c(cc4C(=O)N1C23)OCO5 (stereo partly specified) | > 100 µM | > 100 µM | > 100 µM | > 100 µM | > 100 µM | > 100 | > 100 µM | > 100 µM | > 100 | > 100 µM |  |  |  |  |  |  |  |  |  |
| O=C(N/N=C/c1cc(Cl)cc(Cl)c1[O-])c1ccccc1O.O=C(N/N=C/c1cc(Cl)cc(Cl)c1[O-])c1ccccc1O.[Co+2] | 15.7 µM | 19.1 µM | 10.7 µM | 11.8 µM | 12.9 µM | 6.63 | 7.07 µM | 5.68 µM | 3.74 | 6.97 µM | 0.23 µM | 0.963 µM | 0.486 µM | 0.37 |  |  |  |  |  |
| CCP(=O)(CC)C(Cl)Cl | > 100 µM |  | > 100 µM | > 100 µM | > 100 µM | > 100 | > 100 µM |  | > 100 | > 100 µM |  |  |  |  |  |  |  |  |  |
| CC(=O)Nc1ccc(C(=O)NN2C(=O)C(Cl)/C2=C/c2ccco2)cc1 (stereo unspecified) | > 100 µM | > 100 µM | > 100 µM |  | > 100 µM | > 100 |  | > 100 µM | > 100 | > 100 µM |  |  |  |  |  |  |  |  |  |
| CC(=O)c1c(C)nc(SSc2nc(C)c(C(C)=O)c(-c3ccc(Cl)cc3)c2C#N)c(C#N)c1-c1ccc(Cl)cc1 | > 150 µg/mL | > 150 µg/mL | > 150 µg/mL | > 150 µg/mL | > 150 µg/mL |  | > 150 µg/mL | > 150 µg/mL |  | > 150 µg/mL | 134 µg/mL | 133 µg/mL | 47.7 µg/mL |  | 76.9 (≈ 127 µM) | 49.2 (≈ 81.6 µM) | 50.2 (≈ 83.1 µM) | 62.6 (≈ 104 µM) | 88.1 (≈ 146 µM) |
